Measured values taken from patent US5902736A, “Process for the production of D-α-amino acids by hydrolysis of the corresponding N-carbamyl derivative” (priority 1992, dated 1999).

Experiments:
Format in all cases: cell-based
[1] = tested on: decarbamylase of Blastobacter sp. A 17 p-4; assay: Substrate specificity of decarbamylase, cells of Blastobacter sp. A 17 p-4; conditions: 1% (w/v) substrate, 200 mM potassium phosphate, cell suspension, 24 hours at 30° C.
Description: For the determination of substrate specificity of decarbamylase of Comamonas sp. E 222 C and Blastobacter sp. A 17 p-4, these strains were cultured at 28° C. in the medium C (as described in Example 2) for 1 day (E 222 C) and 7 days (A 17 p-4). […] (E 222 C) or 50° C. (A 17 p-4).

[2] = tested on: decarbamylase of Comamonas sp. E 222 C; assay: Substrate specificity of decarbamylase, cells of Comamonas sp. E 222 C; conditions: cell suspension, 24 hours at 30° C.; for Substrate conversion, Comamonas sp. E 222 c (conversion to amino acids): 1% (w/v) substrate, 200 mM potassium phosphate
Description: For the determination of substrate specificity of decarbamylase of Comamonas sp. E 222 C and Blastobacter sp. A 17 p-4, these strains were cultured at 28° C. in the medium C (as described in Example 2) for 1 day (E 222 C) and 7 days (A 17 p-4). Three ml of the culture medium was centrifuged to separate the microorganism, which was suspended in 300 μl of a substrate solution (200 mM potassium phosphate, 1% (w/v) a substrate as listed below) and incubated for 24 hours at 30° C. (E 222 C) or 50° C. (A 17 p-4).

[3] = tested on: Comamonas sp. E 222 C; assay: Promoters for the production of Comamonas sp. E 222 C decarbamylase; conditions: 0.15% (w/v) additive in medium D, 2 days at 28° C.; D-HPG from 35 mM C-D-HPG, 24 hours at 30° C.
Description: The strain was cultured in a nutrient medium D (1 g/l KH2 PO4, 1 g/l K2 HPO4, 0.3 g/l MgSO4 ·7H2 O, 3 g/l yeast extract, 3 g/l meat extract, 10 g/l glycerol, 2 g/l polypeptone; pH 7.0) for 2 days at 28° C. The culture medium additionally contained a substance as listed in FIG. 2 in a concentration of 0.15% (w/v).
One ml of the culture medium was centrifuged to collect the microorganism, which was suspended in 100 μl of a substrate solution (35 mM C-D-HPG, 200 mM potassium phosphate; pH 7.0). After 24 hours at 30° C., D-HPG was quantitated by HPLC according to the procedure described in Example 2.

[4] = tested on: Blastobacter sp. A 17 p-4; assay: Promoters for the production of Blastobacter sp. A 17 p-4 decarbamylase; conditions: for decarbamylase yield of Blastobacter sp. A 17 p-4, effect of metal ions: 2 mM metal ion plus 0.15% (w/v) uracil in medium D, 4 days at 28° C.; for decarbamylase yield of Blastobacter sp. A 17 p-4: 0.15% (w/v) additive in medium D, 3 days at 28° C., D-HPG formation at 40° C.
Description: The strain was cultured at 28° C. for 3 days in the medium D (as defined in Example 4) additionally containing 0.15% (w/v) of a substance as listed in FIG. 7. Then, D-HPG was formed in the same way as in Example 4 but that the reaction temperature was 40° C., and quantitated by HPLC.
In order to examine the effects of metal ions on the enzyme productivity, the strain was cultured at 28° C. for 4 days in the medium D additionally containing 0.15% (w/v) of uracil and 2 mM a metal ion as listed in FIG. 8. It was found by quantitating D-HPG that ions such as Fe^2+, Fe^3+, Li^+, Cs^+, Be^2+, Mg^2+, Mn^2+, Co^2+ and Al^3+ increased the decarbamylase yield.

| Substrate conversion, Comamonas sp. E 222 c (conversion to amino acids) [2] | Compound | Substrate conversion, Blastobacter sp. A 17 p-4 (conversion to amino acids) [1] | other results |
| --- | --- | --- | --- |
| - (-: 0%) | CC1NC(=O)NC1=O (racemic) [DL-5-Methylhydantoin] | ++ (++: <50%) | – |
| - (-: 0%) | O=C1NC(=O)C(c2ccccc2)N1 (racemic) [DL-5-Phenylhydantoin] | ++ (++: <50%) | – |
| - (-: 0%) | O=C1NC(=O)C(c2ccc(O)cc2)N1 (racemic) [DL-5-p-Hydroxyphenylhydantoin] | ++ (++: <50%) | – |
| ++ (++: <50%) | CSCCC(NC(N)=O)C(=O)O (racemic) [N-Carbamyl-DL-methionine, N-carbamyl-DL-methionine] | ++ (++: <50%) | decarbamylase productivity of Comamonas sp. E 222 C [3]: improved |
| ++ (++: <50%) | CCCCC(NC(N)=O)C(=O)O (racemic) [N-Carbamyl-DL-norleucine] | ++ (++: <50%) | – |
| ++ (++: <50%) | CCCC(NC(N)=O)C(=O)O (racemic) [N-Carbamyl-DL-norvaline] | ++ (++: <50%) | – |
| + (+: <10%) | C[C@@H](O)[C@H](NC(N)=O)C(=O)O (racemic) [N-Carbamyl-DL-threonine] | - (-: 0%) | – |
| – | [Al+3] [Al^3+] | – | decarbamylase yield of Blastobacter sp. A 17 p-4, effect of metal ions [4]: increased |
| – | [Be+2] [Be^2+] | – | decarbamylase yield of Blastobacter sp. A 17 p-4, effect of metal ions [4]: increased |
| – | [Co+2] [Co^2+] | – | decarbamylase yield of Blastobacter sp. A 17 p-4, effect of metal ions [4]: increased |
| – | [Cs+] [Cs^+] | – | decarbamylase yield of Blastobacter sp. A 17 p-4, effect of metal ions [4]: increased |
| – | N[C@@H](C(=O)O)c1ccccc1 [D-phenylglycine] | – | decarbamylase productivity of Comamonas sp. E 222 C [3]: improved |
| – | [Fe+2] [Fe^2+] | – | decarbamylase yield of Blastobacter sp. A 17 p-4, effect of metal ions [4]: increased |
| – | [Li+] [Li^+] | – | decarbamylase yield of Blastobacter sp. A 17 p-4, effect of metal ions [4]: increased |
| – | [Mg+2] [Mg^2+] | – | decarbamylase yield of Blastobacter sp. A 17 p-4, effect of metal ions [4]: increased |
| – | [Mn+2] [Mn^2+] | – | decarbamylase yield of Blastobacter sp. A 17 p-4, effect of metal ions [4]: increased |
| ++++ (++++: 100%) | C[C@@H](NC(N)=O)C(=O)O [N-Carbamyl-D-alanine] | +++ (+++: <80%) | – |
| ++++ (++++: 100%) | CC(C)C[C@@H](NC(N)=O)C(=O)O [N-Carbamyl-D-leucine] | +++ (+++: <80%) | – |
| +++ (+++: <80%) | NC(=O)N[C@@H](C(=O)O)c1ccc(O)cc1 [N-Carbamyl-D-p-hydroxyphenylglycine] | ++ (++: <50%) | – |
| ++++ (++++: 100%) | NC(=O)N[C@H](Cc1ccccc1)C(=O)O [N-Carbamyl-D-phenylalanine, N-carbamyl-D-phenylalanine] | +++ (+++: <80%) | – |
| +++ (+++: <80%) | NC(=O)N[C@@H](C(=O)O)c1ccccc1 [N-Carbamyl-D-phenylglycine] | +++ (+++: <80%) | – |
| + (+: <10%) | NC(=O)N[C@H](CO)C(=O)O [N-Carbamyl-D-serine] | - (-: 0%) | – |
| ++++ (++++: 100%) | CC(C)[C@@H](NC(N)=O)C(=O)O [N-Carbamyl-D-valine] | +++ (+++: <80%) | – |
| - (-: 0%) | CN(CC(=O)O)C(N)=O [N-Carbamyl-sarcosine] | - (-: 0%) | – |
| - (-: 0%) | NC(=O)NC(CC(=O)O)C(=O)O (centres unmarked) [Ureidosuccinic acid] | - (-: 0%) | – |
| – | O=C1CCNC(=O)N1 [dihydrouracil] | – | decarbamylase yield of Blastobacter sp. A 17 p-4 [4]: increased |
| – | O=c1cc[nH]c(=O)[nH]1 [uracil] | – | decarbamylase yield of Blastobacter sp. A 17 p-4 [4]: increased |
| – | NC(N)=O [urea] | – | decarbamylase productivity of Comamonas sp. E 222 C [3]: improved |
| ++++ (++++: 100%) | NC(=O)NCCC(=O)O [β-Ureidopropionic acid] | - (-: 0%) | decarbamylase productivity of Comamonas sp. E 222 C [3]: improved; hydrolysis by Comamonas sp. E 222 C, in words [2]: could hydrolize; decarbamylase yield of Blastobacter sp. A 17 p-4 [4]: increased |
